# Patent US20240224999A1, “METABOLIC INHIBITORS FOR CONTROLLING BIOFILM” (MC (US) 3 LLC, priority 2021, published 2024)
# Entries after “also recorded” stand apart in the source; their conditions may differ.
# Experiments:
# [1] = tested on: Desulfovibrio alaskensis 14563; assay: MBEC biofilm efficacy, Log (Growth) by enumeration; type: cell-based; details: for Log (Growth): biofilm; for efficacy in controlling biofilm formation (in words): tested individually, standard temperature and pressure
# Experimental: (§1) Strains of commonly found bacteria were used for testing the efficacy of the compounds, viz. Desulfovibrio alaskensis and Desulfovibrio vulgaris. Media for the cultures was also prepared by using a standard method. The cultures were aseptically used and incubated under anaerobic conditions. They were plated with an MBEC (minimal biofilm eradication concentration) lid, to allow for biofilm growth. […] Then the plates were rinsed, sonicated and enumerated. These enumerations were grown for 5-days for the readings.
# (§2) A lyophilized Desulfovibrio alaskensis 14563, Desulfovibrio vulgaris 29579 pure cultures received from ATCC were resuspended individually in 500 ul of MB 1250. Aseptically, the content was transferred to a 5-mL tube of MB1250 medium. The cultures were incubated in an anaerobic chamber at 30° C. for 72 hrs. Subsequently, an individual stock culture with a final concentration of 25% glycerol were prepared by adding equal volumes of culture and 50% glycerol. 1 ml of the cultures were then transferred to 2-ml cryogenic vials and stored at −80° C. The purity of the stock cultures was evaluated through PCR, by amplifying the 16S rDNA region, and thus, it was verified that the original ATCC sample was a pure culture.
# (§3) 48-hour cultures of ATCC Desulfovibrio alaskensis 14563 and Desulfovibrio vulgaris 29579 were prepared in an anaerobic chamber. Each culture was prepared as a 1:10 culture by taking 1 milliliter (mL) of a pure culture and inoculating 9 milliliters (mL) of fresh SRB2-LA media. Prepared cultures were incubated at 30° C. and further diluted 1:100 in SRB2-LA media after incubation. They were grown for another 24 hours then diluted 1:10. The 1:10 dilution was plated with an MBEC (minimal biofilm eradication concentration) lid, which would allow for biofilm growth.
# (§4) Treatment plates were prepared by adding 180 μL of fresh phosphate buffer amended with 10% SRB2-LA media to each well. These wells were then dosed with the compounds of interest with a ppm range of 200 to 1 PPM. Edge wells were not used due to their inherent variability and evaporation of the media. Each experiment was done with at least three replicates for different treatments and non-treatment controls. After incubation of the MBEC plate, the MBEC lid was removed and added to a rinse plate containing phosphate buffer and 10% SRB2-LA. The lid was rinsed for 30 seconds then added to the treatment plate. The MBEC lids had 6 hours to 3 days of exposure time. After targeted exposure time, the plates were rinsed, sonicated, and enumerated. The rinse was done for 30 seconds in 10% SRB2-LA with phosphate buffer. Following the rinse, the lid was added to a plate with the same media and buffer mix and the plate was sonicated for 5 minutes. After five minutes, the lid was discarded, and each row of the plate was enumerated. These enumerations were grown for 5 days before being read.
# [2] = tested on: Desulfovibrio vulgaris 29579; assay: MBEC biofilm efficacy, Log (Growth) by enumeration; type: cell-based; details: testing time 2 days
# Experimental: as §1, §2, §3, §4
smiles,measurement,setting,value
O=C(CN1C(=O)c2cccc3cccc(c23)C1=O)NO [Compound C1],Log (Growth),"[1]; testing time 6 hours, 1 PPM",4
same,Log (Growth),"[1]; testing time 6 hours, 5 PPM",2
same,Log (Growth),"[1]; testing time 6 hours, 10 PPM",1
same,Log (Growth),"[1]; testing time 6 hours, 25 PPM",1
same,Log (Growth),"[1]; testing time 6 hours, 50 PPM",1
same,Log (Growth),"[1]; testing time 18 hours, 1 PPM",1
same,Log (Growth),"[1]; testing time 18 hours, 5 PPM",0
same,Log (Growth),"[1]; testing time 18 hours, 10 PPM",0
same,Log (Growth),"[1]; testing time 18 hours, 25 PPM",0
same,Log (Growth),"[1]; testing time 18 hours, 50 PPM",0
same,Log (Growth),"[1]; testing time 2 days, 1 PPM",0
same,Log (Growth),"[1]; testing time 2 days, 2.5 PPM",0
same,Log (Growth),"[1]; testing time 2 days, 10 PPM",0
same,Log (Growth),"[1]; testing time 2 days, 15 PPM",0
same,Log (Growth),"[1]; testing time 2 days, 20 PPM",0
same,Log (Growth),"[1]; testing time 2 days, 25 PPM",0
same,Log (Growth),"[1]; testing time 2 days, 40 PPM",0
same,Log (Growth),"[1]; testing time 2 days, 50 PPM",0
same,Log (Growth),"[1]; testing time 3 days, 50 PPM",0
same,Log (Growth),"[1]; testing time 3 days, 100 PPM",0
same,Log (Growth),"[1]; testing time 3 days, 200 PPM",0
same,killing of the microorganism strain Desulfovibrio alaskensis (in words),"[1]; comparative testing against two commercial products, metabolic inhibition",completely killing
same,efficacy in controlling biofilm formation (in words),[1],significant activity in controlling biofilms; also recorded: highest efficacy
same,Log (Growth),[2]; 5 PPM,4
same,Log (Growth),[2]; 25 PPM,1
same,Log (Growth),[2]; 50 PPM,1
same,Log (Growth),[2]; 100 PPM,0
same,Log (Growth),[2]; 200 PPM,1
O=C(CCCN1C(=O)c2cccc3cccc(c23)C1=O)NO [Compound C12],Log (Growth),"[1]; testing time 2 days, 5 PPM",1
same,Log (Growth),"[1]; testing time 2 days, 25 PPM",0
same,Log (Growth),"[1]; testing time 2 days, 50 PPM",1
same,Log (Growth),"[1]; testing time 2 days, 100 PPM",0.3
same,Log (Growth),"[1]; testing time 2 days, 200 PPM",0
same,efficacy in controlling biofilm formation (in words),[1],significant activity in controlling biofilms; also recorded: exhibited efficacy
CCCCCCCC(=O)NO [Compound C16],Log (Growth),"[1]; testing time 2 days, 5 PPM",5
same,Log (Growth),"[1]; testing time 2 days, 25 PPM",5
same,Log (Growth),"[1]; testing time 2 days, 50 PPM",3
same,Log (Growth),"[1]; testing time 2 days, 100 PPM",1
same,Log (Growth),"[1]; testing time 2 days, 200 PPM",0
same,efficacy in controlling biofilm formation (in words),[1],significant activity in controlling biofilms; also recorded: exhibited efficacy
